From patent US20250236616A1, “IMMUNOMODULATING AZALIDES” (Zoetis Services LLC, priority 2021, published 2025)

Experiments:
TNF-α = assay: Whole bovine blood assay, LPS-induced TNF-α; format: cell-based; conditions: fresh whole bovine blood, LPS stimulant, top drug concentration 250 μM
Experimental: Whole Blood Assay-Fresh whole bovine blood samples were collected into heparinized vacutainer tubes. Assay plates were prepared with 25 μL of drug diluted in PBS at varying concentration in 96 round bottom wells, then 225 μL of blood was added and plates incubated at 37° C. for 4 hours. Cells were stimulated with LPS (or PBS for controls) by adding 25 μL to the plates at a final concentration of 1 μg/mL and incubated at 37° C. for 18 hours. To collect plasma, plates were centrifuged at 2,000×g for 10 minutes and 100 μL of supernatant was transferred to a 96 well polypropylene plate that was sealed and stored at −80° C. Samples were assayed for cytokines using the Meso Scale Discovery (MSD) platform (described below). This same MSD platform was used to assess cytokines in the plasma collected directly from drug treated animals.
Cytokine Detection—An MSD U-Plex cytokine assay was developed following the MSD U-Plex protocol guide and included biotinylated capture antibodies against: bovine Interleukin (IL)-1β (Biorad), bovine IL-6 (R&D Systems) and bovine tumor necrosis factor (TNF)-α (R&D Systems). […] Assay calibrators (Kingfisher) were diluted to a concentration of […] in control lithium heparin plasma, followed by 4-fold serial dilutions into plasma. […] Antibodies were used at the following concentrations: anti-IL-1β at 1 μg/mL, anti-IL-6 at 1 μg/mL and anti-TNF-α at 0.5 μg/mL. Cytokines were quantified according to manufacturer's instructions using a chemiluminescent readout. In brief, 0.5 mL of all biotinylated antibodies were diluted to 10 μg/mL with Diluent 100 and paired to their respective linkers by adding 750 μL of supplied Linker solution and incubated for 30 minutes followed by addition of Stop solution for another 30 minutes. The linked antibodies were then diluted 10-fold into Stop solution. Plates were coated by adding 50 μL of antibody solutions per well and incubated covered and shaking for 1 hour at room temperature. Plates were washed three times with PBS/Tween20 prior to samples or standards being added at 30 μL per well and incubated as above. Plates were washed three times before detection antibodies were added along with 2% goat and rabbit serum to block and incubated same as above. Plates were washed a further three times before addition of 150 μL 2X Read buffer and read immediately on the SI6000 instrument (MSD). For soluble protein levels, a BCA protein kit (Thermofisher) was used. The cytokine concentrations (pg/mL) were normalized to the total protein levels for each sample. [Bassel et. al., BMC Veterinary Research (2020) 16:168]
Therefore, a fresh whole bovine blood assay was developed with LPS as a stimulant (TLR-4 agonist) and with IL-1β and TNF-α as the read-out. Compounds of the invention were evaluated against a positive control for their ability to inhibit LPS-induced IL-1β and TNF-α as an overall evaluation of relative potency and modulation of target pathways.
TNFα is a cell signaling protein, cytokine, that plays a key role in both acute and chronic inflammation. In the bovine whole blood in vitro screening assay the inhibition of TNFα as induced by stimulation by lipopolysaccharide (LPS) and as measured by half the maximal inhibitory concentration (IC50) is recognized as the primary biomarker of immunomodulation potency upon pretreatment with the compounds of the invention. IL-1 B is a mediator of the inflammation response and is involved in a number of cellular activities including proliferation, differentiation and apoptosis. IL-1ß is also released upon cellular stress or cytotoxicity or upon TLR stimulation. […] In order to estimate a therapeutic index from the in vitro assay a differential between the TNFα IC50 (immunomodulation potency) versus the perceived cellular toxicity concentration (IL-1β release or overstimulation) was utilized.

IL-6 = assay: Whole bovine blood assay, LPS-induced IL-6; format: cell-based; conditions: fresh whole bovine blood, LPS stimulant, top drug concentration 250 μM

SMILES | IC50 (TNF-α) | IC50 (IL-6) | IC50 (TNF-α; Bos taurus) | IC50 (IL-6; Bos taurus)
CC[C@H]1OC(=O)[C@H](C)[C@@H](O[C@H]2C[C@@](C)(OC)[C@](O)(CN3CCCCC3)[C@H](C)O2)[C@H](C)[C@@H](O[C@@H]2O[C@H](C)C[C@H](N(C)S(=O)(=O)c3ccc(F)cc3)[C@H]2O)[C@](C)(O)C[C@@H](C)CN[C@H](C)[C@@H](O)[C@]1(C)O [Example C-19] | 5 µM | 7 µM |  | 
CC[C@H]1OC(=O)[C@H](C)[C@@H](O[C@H]2C[C@@](C)(OC)[C@](O)(CN3CCCCC3)[C@H](C)O2)[C@H](C)[C@@H](O[C@@H]2O[C@H](C)C[C@H](N(CC(C)C)S(=O)(=O)c3ccc(Cl)cc3)[C@H]2O)[C@](C)(O)C[C@@H](C)CN[C@H](C)[C@@H](O)[C@]1(C)O [Example C-42] | 6 µM | 6 µM |  | 
CC[C@H]1OC(=O)[C@H](C)[C@@H](O)[C@H](C)[C@@H](O[C@H]2O[C@@H](C)C[C@@H](N(C)S(=O)(=O)Nc3ccccc3)[C@@H]2Oc2ccc(F)cc2)[C@](C)(O)C[C@@H](C)CN[C@H](C)[C@@H](O)[C@]1(C)O [Example A-37] | 19 µM | 46 µM |  | 
CCCNC[C@]1(O)[C@H](C)O[C@@H](O[C@H]2[C@H](C)[C@@H](O[C@@H]3O[C@H](C)C[C@H](N(CC(C)C)S(=O)(=O)c4ccc(OC)cc4)[C@H]3O)[C@](C)(O)C[C@@H](C)CN[C@H](C)[C@@H](O)[C@](C)(O)[C@@H](CC)OC(=O)[C@@H]2C)C[C@@]1(C)OC [Example B-149] | 7 µM | 8 µM |  | 
CC[C@H]1OC(=O)[C@H](C)[C@@H](O[C@H]2C[C@@](C)(OC)[C@](O)(CN3CCCCC3)[C@H](C)O2)[C@H](C)[C@@H](O[C@@H]2O[C@H](C)C[C@H](N(C)S(=O)(=O)Nc3ccc(C)cc3)[C@H]2O)[C@](C)(O)C[C@@H](C)CN[C@H](C)[C@@H](O)[C@]1(C)O [Example C-32] | 5 µM | 8 µM |  | 
CC[C@H]1OC(=O)[C@H](C)[C@@H](O[C@H]2C[C@@](C)(OC)[C@](O)(CNCCC(C)C)[C@H](C)O2)[C@H](C)[C@@H](O[C@@H]2O[C@H](C)C[C@H](N(C)S(=O)(=O)c3ccc(Cl)cc3)[C@H]2O)[C@](C)(O)C[C@@H](C)CN[C@H](C)[C@@H](O)[C@]1(C)O [Example B-21] | 5 µM | 6 µM |  | 
CC[C@H]1OC(=O)[C@H](C)[C@@H](O[C@H]2C[C@@](C)(OC)[C@](O)(CNCc3ccncc3)[C@H](C)O2)[C@H](C)[C@@H](O[C@@H]2O[C@H](C)C[C@H](N(C)S(=O)(=O)Nc3ccc(C(F)(F)F)cc3)[C@H]2O)[C@](C)(O)C[C@@H](C)CN[C@H](C)[C@@H](O)[C@]1(C)O [Example B-89] | 9 µM | 23 µM |  | 
CCCNC[C@]1(O)[C@H](C)O[C@@H](O[C@H]2[C@H](C)[C@@H](O[C@@H]3O[C@H](C)C[C@H](N(C)S(=O)(=O)N(C)c4ccc(F)cc4)[C@H]3O)[C@](C)(O)C[C@@H](C)CN[C@H](C)[C@@H](O)[C@](C)(O)[C@@H](CC)OC(=O)[C@@H]2C)C[C@@]1(C)OC [Example B-61] | 37 µM | 71 µM |  | 
CC[C@H]1OC(=O)[C@H](C)[C@@H](O[C@H]2C[C@@](C)(OC)[C@](O)(CNC3CC3)[C@H](C)O2)[C@H](C)[C@@H](O[C@@H]2O[C@H](C)C[C@H](N(C)S(=O)(=O)Nc3ccc(C(F)(F)F)cc3)[C@H]2O)[C@](C)(O)C[C@@H](C)CN[C@H](C)[C@@H](O)[C@]1(C)O [Example B-70] | 4 µM | 13 µM |  | 
CCCN([C@H]1C[C@@H](C)O[C@@H](O[C@@H]2[C@@H](C)[C@H](O[C@H]3C[C@@](C)(OC)[C@](O)(CN4CCCCC4)[C@H](C)O3)[C@@H](C)C(=O)O[C@H](CC)[C@@](C)(O)[C@H](O)[C@@H](C)NC[C@H](C)C[C@@]2(C)O)[C@@H]1O)S(=O)(=O)c1ccc(Cl)cc1 [Example C-40] | 5 µM | 4 µM |  | 
CC[C@H]1OC(=O)[C@H](C)[C@@H](O[C@H]2C[C@@](C)(OC)[C@](O)(CNCc3ccccc3)[C@H](C)O2)[C@H](C)[C@@H](O[C@@H]2O[C@H](C)C[C@H](N(C)S(=O)(=O)c3nccn3C)[C@H]2Oc2ccc(F)cc2)[C@](C)(O)C[C@@H](C)CN[C@H](C)[C@@H](O)[C@]1(C)O [Example B-141] | 7 µM | 4 µM |  | 
CC[C@H]1OC(=O)[C@H](C)[C@@H](O[C@H]2C[C@@](C)(OC)[C@](O)(CN3CCCCC3)[C@H](C)O2)[C@H](C)[C@@H](O[C@@H]2O[C@H](C)C[C@H](N(C)S(=O)(=O)c3nccn3C)[C@H]2Oc2ccc(F)cc2)[C@](C)(O)C[C@@H](C)CN[C@H](C)[C@@H](O)[C@]1(C)O [Example C-56] | 5 µM | 4 µM |  | 
CC[C@H]1OC(=O)[C@H](C)[C@@H](O[C@H]2C[C@@](C)(OC)[C@](O)(CN3CCCCC3)[C@H](C)O2)[C@H](C)[C@@H](O[C@@H]2O[C@H](C)C[C@H](N(C)S(=O)(=O)Nc3ccc(C(F)(F)F)cc3)[C@H]2O)[C@](C)(O)C[C@@H](C)CN(CC)[C@H](C)[C@@H](O)[C@]1(C)O [Example C-36] | 6 µM | 9 µM |  | 
CC[C@H]1OC(=O)[C@H](C)[C@@H](O[C@H]2C[C@@](C)(OC)[C@](O)(CNCc3ccccc3)[C@H](C)O2)[C@H](C)[C@@H](O[C@@H]2O[C@H](C)C[C@H](N(C)S(=O)(=O)Nc3ccc(C(F)(F)F)cc3)[C@H]2O)[C@](C)(O)C[C@@H](C)CN[C@H](C)[C@@H](O)[C@]1(C)O [Example B-90] | 8 µM | 26 µM |  | 
CCCNC[C@]1(O)[C@H](C)O[C@@H](O[C@H]2[C@H](C)[C@@H](O[C@@H]3O[C@H](C)C[C@H](N(CCC)S(=O)(=O)c4ccc(Cl)cc4)[C@H]3O)[C@](C)(O)C[C@@H](C)CN[C@H](C)[C@@H](O)[C@](C)(O)[C@@H](CC)OC(=O)[C@@H]2C)C[C@@]1(C)OC [Example B-142] |  |  | 8 µM | 9 µM
CCCNC[C@]1(O)[C@H](C)O[C@@H](O[C@H]2[C@H](C)[C@@H](O[C@@H]3O[C@H](C)C[C@H](N(C)S(=O)(=O)c4cnc5ccccn45)[C@H]3Oc3ccc(OC)cc3)[C@](C)(O)C[C@@H](C)CN[C@H](C)[C@@H](O)[C@](C)(O)[C@@H](CC)OC(=O)[C@@H]2C)C[C@@]1(C)OC [Example B-118] | 45 µM | 10 µM |  | 
CC[C@H]1OC(=O)[C@H](C)[C@@H](O[C@H]2C[C@@](C)(OC)[C@](O)(CNCc3cscn3)[C@H](C)O2)[C@H](C)[C@@H](O[C@@H]2O[C@H](C)C[C@H](N(C)S(=O)(=O)c3ccc(Cl)cc3)[C@H]2O)[C@](C)(O)C[C@@H](C)CN[C@H](C)[C@@H](O)[C@]1(C)O [Example B-37] | 8 µM | 13 µM |  | 
CC[C@H]1OC(=O)[C@H](C)[C@@H](O[C@H]2C[C@@](C)(OC)[C@](O)(CNCc3ccc(C(F)(F)F)cc3)[C@H](C)O2)[C@H](C)[C@@H](O[C@@H]2O[C@H](C)C[C@H](N(C)S(=O)(=O)c3ccc(Cl)cc3)[C@H]2O)[C@](C)(O)C[C@@H](C)CN[C@H](C)[C@@H](O)[C@]1(C)O [Example B-25] | 5 µM | 17 µM |  | 
CCCN1C[C@H](C)C[C@@](C)(O)[C@H](O[C@@H]2O[C@H](C)C[C@H](N(C)S(N)(=O)=O)[C@H]2O)[C@@H](C)[C@H](O[C@H]2C[C@@](C)(OC)[C@](O)(CNc3ccc(OC)cc3)[C@H](C)O2)[C@@H](C)C(=O)O[C@H](CC)[C@@](C)(O)[C@H](O)[C@H]1C [Example B-157] | 22 µM | 31 µM |  | 
